Assays:
Type in all cases: cell-based
[1] = system: AML cell lines (MV4-11 (FLT3-ITD) and Kasumi-1 (KITmut)); assay: Apoptosis, AnnexinV and PI flow cytometry; details: 25 and 50 μM for 48 hours
Experimental: Cells (1×10^6) were washed and passed through a […] filter (BD), then re-suspended in 200 μL binding buffer with or without 5 μL AnnexinV (for apoptosis detection) or CD11b (for maturation detection) antibody (BD Biosciences, Billerica, Mass.). After 15 min. of incubation cells were washed with PBS, re-suspended in 500 μL flow buffer and analyzed on a FACSCalibur cytometer (BD Biosciences). For apoptosis detection, 5 μL propidium iodide (PI) (BD Biosciences) was added to cell before running flow cytometry. Sorting for GFP-positive cells was carried out on BD FACS Aria instrument after filtering and washing cells 2× with ice cold PBS supplemented with 2% calf bovine serum and re-suspending in FACS buffer.
PRMT5 inhibition by C12 was also effective in promoting apoptosis and differentiation.
Referring to FIG. 36, a flow cytometry analysis of AML cell lines treated with PRMT5 inhibitor and stained for cell surface markers AnnexinV and PI indicates a dose-dependent increase in the percentage of apoptotic and dead cells when compared to DMSO-treated cells. Induction of programmed cell death was stronger in the FLT3-ITD AML cell line MV4-11.

AML cell lines = assay: MTS growth inhibition assay, summary over cell lines
Experimental: Clonogenic assays were set up by plating 1×10^3 cell/mL in semi-solid methylcellulose medium (MethoCult, Stem Cell Technologies). Colonies were counted after 10-14 days using an inverted microscope. Growth inhibition assays were measured using a colorimetric MTS assay: 5×10^4 cells were plated in 100 μL final volume in a 96-well plate in the presence of different concentrations of C12 for 24, 48 and 72 hours at 37° C. Afterwards, 20 μL of the CellTiter 96W AQueous One Solution Reagent, which contains tetrazolium compound [3-(4,5-[…])-5-(3-carboxymethoxyphenyl)-2-(4-sulfophenyl)-2H-tetrazolium, inner salt; MTS] and an electron coupling reagent (phenazine ethosulfate; PES) (Promega, Madison Wis.), was added to each well. Within 1-4 hours of incubation at 37° C., the optical density at 490 and 690 nm was measured. Cell viability was calculated with respect to the control samples and reference background wavelength at 690 nm. At least three independent experiments were performed. […]
Referring to FIGS. 34A and 34B, a colorimetric MTS assay was used to measure the proliferation rate of AML cell lines and primary blasts from patients after 48 hours incubation with a PRMT5 inhibitor compound (HLCL61 or C12). The dose-dependent decrease in absorbance indirectly correlates with the number of metabolically active live cells. […]

miR-29b in AML cells = assay: miR-29b levels, qRT-PCR
Experimental: Total RNA was extracted using TriZol reagent (Invitrogen) and subjected to Reverse Transcription using SuperScript III reagents (Invitrogen). Quantitative Real-Time PCR was performed on resulting cDNA using commercially available TaqMan Gene Expression Assay primers and probes, and the 7900HT Fast Real-Time PCR System (Applied Biosystems). Mature microRNA levels were quantified using reverse transcription product made with TaqMan MicroRNA Reverse Transcription Kit (Life Technologies).
The regulatory region of pri-miR-29b was later checked for possible docking of PRMT5 (indirect binding) or H3R8me2 and/or H4R3me2 (direct binding) using ChIP assay with and without PRMT5 inhibition. […] The efficiency of miR-29b in modulating SP1 was confirmed by miR-29b gain- and loss-of function assays in AML cells, and significant suppression of SP1 in miR-29b overexpressing cells was detected, while SP1 was re-expressed when cells were treated with miR-29b knockdown (FIGS. 49A and 49B). […] As a result, SP1 transcription activity may increase, for example, in response to removal of miR-29b inhibitory effects and active SP1 in turn may promote FLT3 expression.
Referring to FIG. 50A-C, a qRT-PCR assay was used to measure transcript levels of pri-miR-29b (isoforms pri-miR-29b-1 and pri-miR-29b-2) in AML cell lines and patient blasts following PRMT5 inhibition. […]

SMILES: CCn1c2ccccc2c2cc(CNCc3ccccc3OC)ccc21 [HLCL-61]
- apoptosis [1]: dose-dependent increase in apoptosis
- IC50 (AML cell lines; 48 h post treatment, range over AML cell lines): 21 to 21.5 µM
- inhibition of cell proliferation (AML cell lines; AML cell lines and primary patients' blasts, 1 to 100 μM): dose-dependent (1 to 100 μM) inhibition of cell proliferation
- pri-miR-29b transcript levels (pri-miR-29b-1 and pri-miR-29b-2) (miR-29b in AML cells; AML cell lines and patient blasts): substantial and dose-dependent increase
- miR-29b levels (miR-29b in AML cells; MV4-11 and THP-1 cells): significant increase in miR-29b levels

Source: patent US9856218B2, “Inhibitors of PRMT5 and methods of their use” (Ohio State Innovation Foundation, priority 2013, dated 2018)
